According to PMC10056611, “Synthesis and Biological Evaluation of 3-Amino-4,4-Dimethyl Lithocholic Acid Derivatives as Novel, Selective, and Cellularly Active Allosteric SHP1 Activators” (Molecules, 2023):

Assays:
SHP1 = SHP1 (Homo sapiens, UniProt P29350); assay: SHP1 enzyme assay (DiFMUP fluorogenic substrate), activation; format: biochemical
Text: The SHP1-activating effects of the synthetic compounds were examined by the 6,8-difluoro-4-methylumbelliferyl phosphate (DiFMUP) assay.
(§1) The proteins SHP1 and SHP2, containing a GST-tag, were expressed in E. coli. 6,8-Difluoro-4-methylumbelliferyl phosphate (DiFMUP) was used as the fluorogenic substrate. Fluorescence data were collected by the Envision (PerkinElmer, Waltham, MA, USA) plate reader, using excitation and emission wavelengths of 358 and 455 nm, respectively. A sigmoidal dose-response curve was fitted to the data, and the EC50 values were calculated using GraphPad Prism. In the data processing, the fitting and curves were calculated using nonlinear regression, and the fold value of the compound was calculated using the software GraphPad Prism 8. The folds were obtained according to the equation: Y = Bottom + (Top-Bottom)/(1 + 10^((LogEC50-X) × HillSlope)). The data represent mean values ± standard error of the mean (SEM) of eight-point experiments, each performed in triplicates from three independent experiments.

SHP2 = biological target: T1, SHP2 (Homo sapiens, UniProt Q06124); assay: SHP2 enzyme assay (DiFMUP fluorogenic substrate), activation; format: biochemical
T1 sequence (Q06124 1-593): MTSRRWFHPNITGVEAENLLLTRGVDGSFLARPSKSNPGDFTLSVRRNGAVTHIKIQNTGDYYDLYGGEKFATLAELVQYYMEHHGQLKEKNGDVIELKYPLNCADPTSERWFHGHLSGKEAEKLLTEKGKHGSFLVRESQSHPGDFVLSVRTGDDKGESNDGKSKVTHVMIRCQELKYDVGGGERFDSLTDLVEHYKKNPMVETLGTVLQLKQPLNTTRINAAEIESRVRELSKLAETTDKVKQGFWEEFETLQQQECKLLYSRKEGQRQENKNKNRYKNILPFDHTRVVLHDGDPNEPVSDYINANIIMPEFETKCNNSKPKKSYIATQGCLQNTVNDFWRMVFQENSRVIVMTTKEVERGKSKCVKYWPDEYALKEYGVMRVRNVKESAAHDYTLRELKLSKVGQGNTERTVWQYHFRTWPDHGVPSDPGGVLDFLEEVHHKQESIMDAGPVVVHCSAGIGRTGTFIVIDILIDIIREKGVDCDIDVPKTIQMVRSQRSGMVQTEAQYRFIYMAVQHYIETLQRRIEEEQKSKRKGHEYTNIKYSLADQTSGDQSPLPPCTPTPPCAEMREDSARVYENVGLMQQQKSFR
Protocol: as §1

[1] = tested on: acute lymphoblastic leukemia (ALL) cell line RS4;11; assay: CCK8 cell viability assay, RS4;11; format: cell-based; settings: Homo sapiens, RS4-11, 72 h, RS4;11 cells
Protocol: (§2) Acute lymphoblastic leukemia (ALL) cell line RS4;11 (2.5 × 10^4 cells per well), acute promyelocytic leukemia (APL) cell line NB4 (1 × 10^4 cells per well), and non-small cell lung cancer (NSCLC) cell line NCI-H1299 (1.5 × 10^3 cells per well) were seeded into 96-well plates. After treatment with different concentrations of drugs, the cells were incubated in quadruple for 72 h. Thereafter, a 10 μL CCK8 solution was added to each well. After a 3 h incubation at 37 °C, the plates were read for absorbance at 450 nm and 650 nm using a SpectraMax Molecular Devices microplate reader. The final data were calibrated by OD450 nm-OD650 nm. The inhibition rates of proliferation were calculated with the following equation:Inhibition ratio = (ODDMSO-ODCompd)/(ODDMSO-ODblank) × 100%.(1)
(§3) The concentrations of the compounds that inhibited cell growth by 50% (IC50) were calculated using GraphPad Prism version 5.0. NVP-2 was used as a positive control.

[2] = tested on: acute promyelocytic leukemia (APL) cell line NB4; assay: CCK8 cell viability assay, NB4; format: cell-based; settings: Homo sapiens, NB-4, NB4 cells, 72 h
Protocol: as §2, §3

[3] = tested on: non-small cell lung cancer (NSCLC) cell line NCI-H1299; assay: CCK8 cell viability assay, NCI-H1299; format: cell-based; settings: Homo sapiens, NCI-H1299 cells, 72 h
Protocol: as §2, §3

SHP1, sequence (P29350 whole entry): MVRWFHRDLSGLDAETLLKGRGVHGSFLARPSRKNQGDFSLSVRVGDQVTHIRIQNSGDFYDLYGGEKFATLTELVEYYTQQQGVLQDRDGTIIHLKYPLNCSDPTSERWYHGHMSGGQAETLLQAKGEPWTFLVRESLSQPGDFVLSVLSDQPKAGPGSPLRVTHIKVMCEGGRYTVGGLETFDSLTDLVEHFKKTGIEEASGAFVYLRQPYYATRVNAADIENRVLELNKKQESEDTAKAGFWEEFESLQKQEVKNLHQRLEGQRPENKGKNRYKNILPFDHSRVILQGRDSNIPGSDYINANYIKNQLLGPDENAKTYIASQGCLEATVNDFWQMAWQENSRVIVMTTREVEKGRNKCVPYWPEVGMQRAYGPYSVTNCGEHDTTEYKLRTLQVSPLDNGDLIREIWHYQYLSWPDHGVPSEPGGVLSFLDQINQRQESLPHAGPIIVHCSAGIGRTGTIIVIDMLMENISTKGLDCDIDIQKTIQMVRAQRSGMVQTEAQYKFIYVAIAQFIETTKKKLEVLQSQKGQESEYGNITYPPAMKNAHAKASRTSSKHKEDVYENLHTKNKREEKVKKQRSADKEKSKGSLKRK

**Q.** For `C[C@H](COc1ccc(NC(=O)Nc2ccc(Cl)c(C(F)(F)F)c2)cc1)[C@H]1CCC2C3CC=C4C(C)(C)C(N)CC[C@]4(C)C3CC[C@@]21C` (stereo partly drawn) [Compound 5ba], which EC50 (SHP1; DiFMUP assay, mean ± SEM) is on record?
**A.** The EC50 was 1540 ± 240 nM.

**Q.** What about the “Maximum Activation Fold” value (SHP1; DiFMUP assay, mean ± SEM) of the same compound?
**A.** Its value is 7.63 ± 0.20 fold.

**Q.** And the “increase in potency compared to 5aw” value (SHP1; SHP1 EC50 ratio vs 5aw)?
**A.** The value was roughly 23 times.

**Q.** What about the EC50 (SHP2; DiFMUP assay) of the same compound?
**A.** Its EC50 is greater than 50 µM.

**Q.** What about the “selectivity for SHP1 over SHP2” value (SHP2; ratio of EC50 values, SHP2 vs SHP1) of the same compound?
**A.** The value was “more than 32 fold”.

**Q.** What about the IC50 [1] of the same compound?
**A.** The IC50 was 4 ± 0.22 µM.

**Q.** What about the IC50 [2] of the same compound?
**A.** Its IC50 is 3.74 ± 0.39 µM.

**Q.** What about the IC50 [3] of the same compound?
**A.** Its IC50 is 5.51 ± 0.23 µM.

**Q.** What about the melting point of the same compound?
**A.** The melting point was 197.1 to 198.6 °C.
